Experimental data reported in ChEMBL document CHEMBL4118258, “2-Substituted-1-(2-morpholinoethyl)-1H-naphtho[2,3-d]imidazole-4,9-diones: Design, synthesis and antiproliferative activity” (Bioorg Med Chem Lett, 2018).

Key:
MCF7 = test: Antiproliferative activity against human MCF7 cells after 72 hrs by MTT assay; type: functional, cell-based; details: MCF7, 72 h
HeLa = test: Antiproliferative activity against human HeLa cells after 72 hrs by MTT assay; type: functional, cell-based
L929 = test: Antiproliferative activity against mouse L929 cells after 72 hrs by MTT assay; details: L929, 72 h
A549 = test: cells; details: Homo sapiens, A549, 72 h
Description: Antiproliferative activity against human A549 cells after 72 hrs by MTT assay

Row | SMILES | IC50 (MCF7) | IC50 (HeLa) | IC50 (L929) | IC50 (A549)
1 | CCC(C)c1nc2c(n1CCN1CCOCC1)C(=O)c1ccccc1C2=O (configuration not stated) | 123 µM | > 200 µM | 100 µM | 175 µM
2 | C[N+]1(CCn2c(-c3ccccc3)nc3c2C(=O)c2ccccc2C3=O)CCOCC1 | 184 µM | > 200 µM | > 200 µM | > 200 µM
3 | O=C1c2ccccc2C(=O)c2c1nc(-c1cccc(F)c1)n2CCN1CCOCC1 | 106 µM | 133 µM | 131 µM | 87 µM
4 | O=C1c2ccccc2C(=O)c2c1nc(-c1ccco1)n2CCN1CCOCC1 | 169 µM | 191 µM | 175 µM | 147 µM
5 | CC(C)Cc1nc2c(n1CCN1CCOCC1)C(=O)c1ccccc1C2=O | > 200 µM | 180 µM | 157 µM | 25.9 µM
6 | O=C1c2ccccc2C(=O)c2c1nc(C1CCC1)n2CCN1CCOCC1 | 105 µM | 99.3 µM | 84.9 µM | 73 µM
7 | O=C1c2ccccc2C(=O)c2c1nc(-c1cccs1)n2CCN1CCOCC1 | 137 µM | 173 µM | 177 µM | 91.9 µM
8 | O=C1c2ccccc2C(=O)c2c1nc(-c1ccc(F)c(Cl)c1)n2CCN1CCOCC1 | 48.4 µM | 52.5 µM | 44.3 µM | 31.2 µM
9 | O=C1C(Cl)=C(NCCN2CCOCC2)C(=O)c2nccnc21 | > 200 µM | > 200 µM | 149 µM | 158 µM
10 | O=C1c2ccccc2C(=O)c2c1nc(-c1cnccn1)n2CCN1CCOCC1 | 53.5 µM | 79.1 µM | 49.6 µM | 78.3 µM
11 | O=C1c2ccccc2C(=O)c2c1nc(-c1ccccn1)n2CCN1CCOCC1 | 37.7 µM | 105 µM | 118 µM | 32.2 µM
12 | COc1ccc(-c2nc3c(n2CC[N+]2(C)CCOCC2)C(=O)c2ccccc2C3=O)cc1Cl | > 200 µM | 97.5 µM | > 200 µM | 174 µM
13 | O=C1c2ccccc2C(=O)c2c1nc(-c1cccnc1)n2CCN1CCOCC1 | 167 µM | 109 µM | 44.6 µM | 37.8 µM
14 | CCCc1nc2c(n1CCN1CCOCC1)C(=O)c1ccccc1C2=O | 95.9 µM | 95.1 µM | 80.3 µM | 37.4 µM
15 | CC(C)(C)c1nc2c(n1CCN1CCOCC1)C(=O)c1ccccc1C2=O | 150 µM | 88.2 µM | 86 µM | 21.8 µM
16 | O=C1c2ccccc2C(=O)c2c1nc(-c1ccc(Cl)c(C(F)(F)F)c1)n2CCN1CCOCC1 | 140 µM | 119 µM | 111 µM | 45.2 µM
17 | O=C1c2ccccc2C(=O)c2c1nc(C1CCCCC1)n2CCN1CCOCC1 | > 200 µM | > 200 µM | 80.3 µM | 76.4 µM
18 | c1c2ncn(CCN3CCOCC3)c2cc2ncn(CCN3CCOCC3)c12 | > 200 µM | > 200 µM | > 200 µM | > 200 µM
19 | C[N+]1(CCn2c(C(F)(F)F)nc3c2C(=O)c2ccccc2C3=O)CCOCC1 | 139 µM | 116 µM | > 200 µM | 93.5 µM
20 | CC(C)c1nc2c(n1CCN1CCOCC1)C(=O)c1ccccc1C2=O | 123 µM | 125 µM | 79.8 µM | 32.5 µM
21 | CCCCc1nc2c(n1CCN1CCOCC1)C(=O)c1ccccc1C2=O | 113 µM | 166 µM | > 200 µM | 107 µM
22 | COc1ccc(-c2nc3c(n2CCN2CCOCC2)C(=O)c2ccccc2C3=O)cc1 | 86.9 µM | 112 µM | 101 µM | 84.5 µM

Row | SMILES | IC50 (MCF7) | IC50 (HeLa) | IC50 (L929) | IC50 (A549)
23 | O=C1c2ccccc2C(=O)c2c1nc(-c1ccc(-c3nc4c(n3CCN3CCOCC3)C(=O)c3ccccc3C4=O)cc1)n2CCN1CCOCC1 | 39.1 µM | 79.2 µM | 121 µM | 63.4 µM
24 | COc1ccc(-c2nc3c(n2CCN2CCOCC2)C(=O)c2ccccc2C3=O)cc1Cl | 10.6 µM | 8.3 µM | 67.3 µM | 4.3 µM
25 | O=C1c2ccccc2C(=O)c2c1nc(C(F)(F)F)n2CCN1CCOCC1 | 17.9 µM | 15.1 µM | 16.2 µM | 15.9 µM
26 | CCC(CC)c1nc2c(n1CCN1CCOCC1)C(=O)c1ccccc1C2=O | 108 µM | 95.9 µM | 79.4 µM | 57.3 µM
27 | CCc1nc2c(n1CCN1CCOCC1)C(=O)c1ccccc1C2=O | 179 µM | 144 µM | 106 µM | 84.9 µM
28 | C[N+]1(CCn2c(-c3ccsc3)nc3c2C(=O)c2ccccc2C3=O)CCOCC1 | 133 µM | 160 µM | 133 µM | 115 µM
29 | Cc1ccccc1-c1nc2c(n1CCN1CCOCC1)C(=O)c1ccccc1C2=O | 116 µM | 121 µM | 80.2 µM | 23.6 µM
30 | O=C1c2ccccc2C(=O)c2c1nc(-c1cccc3ccccc13)n2CCN1CCOCC1 | 30.1 µM | 19.2 µM | 41 µM | 16.6 µM
31 | O=C1c2ccccc2C(=O)c2c1nc(-c1ccccc1)n2CCN1CCOCC1 | 70.1 µM | 61.4 µM | 40.6 µM | 24.5 µM
32 | CC(C)c1ccc(-c2nc3c(n2CCN2CCOCC2)C(=O)c2ccccc2C3=O)cc1 | 106 µM | 99.8 µM | 71.9 µM | 70 µM
33 | O=C1c2ccccc2C(=O)c2c1nc(-c1cccc(C(F)(F)F)c1)n2CCN1CCOCC1 | 134 µM | 185 µM | 72.5 µM | 33.3 µM
34 | C[N+]1(CCn2c(-c3cccc(F)c3)nc3c2C(=O)c2ccccc2C3=O)CCOCC1 | 166 µM | 166 µM | > 200 µM | 166 µM
35 | O=C1c2ccccc2C(=O)c2c1nc(-c1ccncc1)n2CCN1CCOCC1 | 140 µM | 153 µM | 116 µM | 120 µM
36 | C[N+]1(CCn2c(-c3ccccn3)nc3c2C(=O)c2ccccc2C3=O)CCOCC1 | 141 µM | 106 µM | 106 µM | 141 µM
37 | Cc1cc2ncn(CCN3CCOCC3)c2cc1C | 181 µM | > 200 µM | 187 µM | 112 µM
38 | O=C1c2ccccc2C(=O)c2c1nc(/C=C/c1ccccc1)n2CCN1CCOCC1 | 58.3 µM | 82.1 µM | 120 µM | 76.9 µM
39 | CC(C)c1ccc(CC(C)c2nc3c(n2CCN2CCOCC2)C(=O)c2ccccc2C3=O)cc1 (configuration not stated) | 110 µM | 122 µM | > 200 µM | > 200 µM
40 | O=C1c2ccccc2C(=O)c2c1nc(-c1ccsc1)n2CCN1CCOCC1 | 115 µM | 136 µM | 122 µM | 20.9 µM
41 | Cc1ccc(CCc2nc3c(n2CCN2CCOCC2)C(=O)c2ccccc2C3=O)o1 | 166 µM | 88.2 µM | 96.2 µM | 72.8 µM
42 | O=C1c2ccccc2C(=O)c2c1nc(C1CC1)n2CCN1CCOCC1 | 64.7 µM | 61.2 µM | 40 µM | 36 µM
43 | Cc1nc2c(n1CCN1CCOCC1)C(=O)c1ccccc1C2=O | > 200 µM | > 200 µM | 118 µM | 105 µM
